Source: patent US11878965B2, “Inhibitors of peptidylarginine deiminases” (Gilead Sciences, Inc., priority 2020, dated 2024)

Target: human PAD4 (Homo sapiens (Human), UniProt Q9UM07)
Test: In Vitro PAD4 BAEE Biochemical Assay
Conditions: human PAD4, BAEE substrate; 5 nM PAD4, 2 mM calcium chloride, 3 mM BAEE; geometric mean of multiple experiments
Summary of the method: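 Recombinant human PAD4 (His-SUMO tag removed, E. coli-expressed), 5 nM, preincubated with compound and 2 mM CaCl2 30 min at 25 °C in MOPS pH 7.6 with DTT; 3 mM BAEE added for 2 h at 25 °C, EDTA stop. Released ammonia detected by o-phthalaldehyde/DTT fluorescence (ex 405, em 535 nm).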

Chain of human PAD4 (Q9UM07 2-663): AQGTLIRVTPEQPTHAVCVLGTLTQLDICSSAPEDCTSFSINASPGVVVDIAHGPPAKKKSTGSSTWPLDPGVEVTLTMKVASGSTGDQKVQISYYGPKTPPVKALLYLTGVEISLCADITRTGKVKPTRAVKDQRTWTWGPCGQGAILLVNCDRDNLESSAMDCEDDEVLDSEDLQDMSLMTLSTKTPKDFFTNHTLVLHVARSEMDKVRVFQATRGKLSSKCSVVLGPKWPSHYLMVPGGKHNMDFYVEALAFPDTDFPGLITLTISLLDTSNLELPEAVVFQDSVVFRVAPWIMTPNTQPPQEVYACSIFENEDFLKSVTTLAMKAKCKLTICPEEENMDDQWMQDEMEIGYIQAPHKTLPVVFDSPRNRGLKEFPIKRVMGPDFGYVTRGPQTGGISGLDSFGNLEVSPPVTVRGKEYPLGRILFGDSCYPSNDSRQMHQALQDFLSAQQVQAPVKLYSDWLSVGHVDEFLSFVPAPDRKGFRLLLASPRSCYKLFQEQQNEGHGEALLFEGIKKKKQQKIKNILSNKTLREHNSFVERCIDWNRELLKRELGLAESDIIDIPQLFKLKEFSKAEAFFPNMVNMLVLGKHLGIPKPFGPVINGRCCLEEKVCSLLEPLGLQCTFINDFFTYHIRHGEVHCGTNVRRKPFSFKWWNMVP

SMILES	IC50 [nM]
COc1cc(C(=O)N2[C@H]3CC[C@@H]2[C@H](N)C3)cc2nc(-c3cc4ccc([C@@H](C)NC(=O)N5CC[C@@H](F)C5)cc4n3CC3CC3)n(C)c12 [Example 237, (R)-N-((R)-1-(2-(5-((1R,2R,4S)-2-amino-7-azabicyclo[2.2.1]heptane-7-carbonyl)-7-methoxy-1-methyl-1H-benzo[d]imidazol-2-yl)-1-(cyclopropylmethyl)-1H-indol-6-yl)ethyl)-3-fluoropyrrolidine-1-carboxamide]	18.5
C[C@@H](NC(=O)N(C)C)c1ccc2cc(-c3nc4cc(C(=O)N[C@H]5CNCC[C@@H]5F)c(F)cc4n3C)n(CC3CC3)c2n1 [Example 239, 2-(1-(cyclopropylmethyl)-6-((R)-1-(3,3-dimethylureido)ethyl)-1H-pyrrolo[2,3-b]pyridin-2-yl)-6-fluoro-N-((3S,4S)-4-fluoropiperidin-3-yl)-1-methyl-1H-benzo[d]imidazole-5-carboxamide]	166
CCCS(=O)(=O)N[C@H](C)c1ccc2cc(-c3nc4cc(C(=O)N5[C@H]6CC[C@@H]5[C@H](N)C6)cc(OC)c4n3C)n(CC3CC3)c2n1 [Example 240, N—((R)-1-(2-(5-((1R,2R,4S)-2-amino-7-azabicyclo[2.2.1]heptane-7-carbonyl)-7-methoxy-1-methyl-1H-benzo[d]imidazol-2-yl)-1-(cyclopropylmethyl)-1H-pyrrolo[2,3-b]pyridin-6-yl)ethyl)propane-1-sulfonamide]	65.6
COc1cc(C(=O)N2[C@H]3CC[C@@H]2[C@H](N)C3)cc2nc(-c3cc4ccc([C@@H](C)NS(=O)(=O)c5cnn(C)c5)nc4n3CC3CC3)n(C)c12 [Example 241, N-((R)-1-(2-(5-((1R,2R,4S)-2-amino-7-azabicyclo[2.2.1]heptane-7-carbonyl)-7-methoxy-1-methyl-1H-benzo[d]imidazol-2-yl)-1-(cyclopropylmethyl)-1H-pyrrolo[2,3-b]pyridin-6-yl)ethyl)-1-methyl-1H-pyrazole-4-sulfonamide]	76.7
COc1cc(C(=O)N2[C@H]3CC[C@@H]2[C@H](N)C3)cc2nc(-c3cc4ccc([C@@H](C)NS(=O)(=O)c5ccc(F)cc5)nc4n3CC3CC3)n(C)c12 [Example 242, N-((R)-1-(2-(5-((1R,2R,4S)-2-amino-7-azabicyclo[2.2.1]heptane-7-carbonyl)-7-methoxy-1-methyl-1H-benzo[d]imidazol-2-yl)-1-(cyclopropylmethyl)-1H-pyrrolo[2,3-b]pyridin-6-yl)ethyl)-4-fluorobenzenesulfonamide]	107
COc1cc(C(=O)N2[C@H]3CC[C@@H]2[C@H](N)C3)cc2nc(-c3cc4ccc([C@@H](C)NS(C)(=O)=O)nc4n3CC3CC3)n(C)c12 [Example 243, N-((R)-1-(2-(5-((1R,2R,4S)-2-amino-7-azabicyclo[2.2.1]heptane-7-carbonyl)-7-methoxy-1-methyl-1H-benzo[d]imidazol-2-yl)-1-(cyclopropylmethyl)-1H-pyrrolo[2,3-b]pyridin-6-yl)ethyl)methanesulfonamide]	52.8
COc1cc(C(=O)N2CCC[C@@H](N)C2)cc2nc(-c3cc4ccc([C@@H](C)N5CCCC5=O)nc4n3CC3CC3)n(C3CC3)c12 [Example 244, 1-((R)-1-(2-(5-((R)-3-aminopiperidine-1-carbonyl)-1-cyclopropyl-7-methoxy-1H-benzo[d]imidazol-2-yl)-1-(cyclopropylmethyl)-1H-pyrrolo[2,3-b]pyridin-6-yl)ethyl)pyrrolidin-2-one]	49.3
COc1cc(C(=O)N2[C@H]3CC[C@@H]2[C@H](N)C3)cc2nc(-c3cc4ccc([C@@H](C)N5CCCC5=O)nc4n3CC3CC3)n(C3CC3)c12 [Example 245]	31.7
COc1cc(C(=O)N2[C@H]3CC[C@@H]2[C@H](N)C3)cc2nc(-c3cc4ccc([C@H]5CCCN5C(=O)C(C)(C)C)nc4n3CC3CC3)n(C)c12 [Example 246, 1-((R)-2-(2-(5-((1R,2R,4S)-2-amino-7-azabicyclo[2.2.1]heptane-7-carbonyl)-7-methoxy-1-methyl-1H-benzo[d]imidazol-2-yl)-1-(cyclopropylmethyl)-1H-pyrrolo[2,3-b]pyridin-6-yl)pyrrolidin-1-yl)-2,2-dimethylpropan-1-one]	48.4
COc1cc(C(=O)N2[C@H]3CC[C@@H]2[C@H](N)C3)cc2nc(-c3cc4ccc([C@H]5CCCN5C(C)=O)nc4n3CC3CC3)n(C)c12 [Example 247, 1-((R)-2-(2-(5-((1R,2R,4S)-2-amino-7-azabicyclo[2.2.1]heptane-7-carbonyl)-7-methoxy-1-methyl-1H-benzo[d]imidazol-2-yl)-1-(cyclopropylmethyl)-1H-pyrrolo[2,3-b]pyridin-6-yl)pyrrolidin-1-yl)ethan-1-one]	36.7
COc1cc(C(=O)N2[C@H]3CC[C@@H]2[C@H](N)C3)cc2nc(-c3cc4ccc([C@H]5CCCN5C(=O)N5CCCC5)nc4n3CC3CC3)n(C)c12 [Example 248, ((R)-2-(2-(5-((1R,2R,4S)-2-amino-7-azabicyclo[2.2.1]heptane-7-carbonyl)-7-methoxy-1-methyl-1H-benzo[d]imidazol-2-yl)-1-(cyclopropylmethyl)-1H-pyrrolo[2,3-b]pyridin-6-yl)pyrrolidin-1-yl)(pyrrolidin-1-yl)methanone]	40.5
COc1cc(C(=O)N2C[C@H](N)CCN2C)cc2nc(-c3cc4ccc(C(C)(C)O)nc4n3CC3CC3)n(C)c12 [Example 249, (R)-(5-amino-2-methyltetrahydropyridazin-1(2H)-yl)(2-(1-(cyclopropylmethyl)-6-(2-hydroxypropan-2-yl)-1H-pyrrolo[2,3-b]pyridin-2-yl)-7-methoxy-1-methyl-1H-benzo[d]imidazol-5-yl)methanone]	227
COc1cc(C(=O)N2C[C@H](N)CC[C@@H]2C)cc2nc(-c3cc4ccc(C(=O)N(C)C)nc4n3CC3CC3)n(C)c12 [Example 250, 2-(5-((2S,5R)-5-amino-2-methylpiperidine-1-carbonyl)-7-methoxy-1-methyl-1H-benzo[d]imidazol-2-yl)-1-(cyclopropylmethyl)-N,N-dimethyl-1H-pyrrolo[2,3-b]pyridine-6-carboxamide]	874
CNC(=O)c1ccc2cc(-c3nc4cc(C(=O)N5C[C@H](N)CC[C@@H]5C)cc(OC)c4n3C)n(CC3CC3)c2n1 [Example 251, 2-(5-((2S,5R)-5-amino-2-methylpiperidine-1-carbonyl)-7-methoxy-1-methyl-1H-benzo[d]imidazol-2-yl)-1-(cyclopropylmethyl)-N-methyl-1H-pyrrolo[2,3-b]pyridine-6-carboxamide]	1720
COc1cc(C(=O)N2C[C@H](N)CC[C@@H]2C)cc2nc(-c3cc4ccc(C(=O)N(C)c5ccccc5)nc4n3CC3CC3)n(C)c12 [Example 252, 2-(5-((2S,5R)-5-amino-2-methylpiperidine-1-carbonyl)-7-methoxy-1-methyl-1H-benzo[d]imidazol-2-yl)-1-(cyclopropylmethyl)-N-methyl-N-phenyl-1H-pyrrolo[2,3-b]pyridine-6-carboxamide]	1820
COc1cc(C(=O)N2CCC[C@@H](N)C2)cc2nc(-c3cc4ccc(S(C)(=O)=O)nc4n3CC3CC3)n(C)c12 [Example 253, (R)-(3-aminopiperidin-1-yl)(2-(1-(cyclopropylmethyl)-6-(methylsulfonyl)-1H-pyrrolo[2,3-b]pyridin-2-yl)-7-methoxy-1-methyl-1H-benzo[d]imidazol-5-yl)methanone]	797
